Laboratory results taken from patent publication US8710252B2, “Hepodxilin analog enantiomers” (priority 2006, dated 2014).
“Also recorded” adds a separate entry of the source.

Key:
washed human platelets = test: I-BOP evoked human platelet aggregation in vitro with washed platelets; type: cell-based; settings: washed human platelets, 5 ng I-BOP; compounds are methyl esters; read-out: IC50, inhibition of I-BOP evoked human platelet aggregation
Protocol: Washed human platelets were prepared as previously described (Pace-Asciak et al., 2002). The aggregation of platelets was carried out in a conventional 4-well aggregometer with stirring of the suspension maintained at 37° C. The platelet suspension was caused to aggregate with a thromboxane stable analog, I-BOP. The isolated enantiomer compounds and their respective racemates, PBT-3 and PBT-4, were added at various concentrations to cuvettes containing 375×10^6 platelets/ml, 1 min prior to the addition of 5 ng I-BOP (Cayman Chemicals, Ann Arbor, Mich.). Aggregation was monitored for an additional 5 min.

[1] = test system: human leukemic K562 cells; test: Inhibition of 3H-methyl thymidine incorporation (cell proliferation) in K562 cells; type: cell-based; settings: 6 h treatment; compounds are methyl esters
Protocol: The human leukemic K562 cell line was established as previously reported (Qiao et al., 2003). Cells were maintained as suspension cultures in RPMI 1640 medium supplemented with 100 1.1/ml penicillin G, 100 μg/ml streptomycin, 10% (v/v) […] in a humidified atmosphere of 5% CO2 at 37° C. Cell viability was assessed by the exclusion of Trypan blue. Incorporation of ^3H-methyl thymidine into cell DNA was used as an assay for cell proliferation. Cells ([…]) were starved for 12 h, and were subsequently treated with the test compounds. Compounds A, B, C and D were made up at various concentrations in DMSO ([…] A, B, C and D. Concentrations were doubled for racemates PBT-3 and PBT-4) and 1 of these solutions was added/ml volume of cells. Cells were suspended in RPMI 1640 medium. At 6 h post-treatment at 37° C. the cells were fixed and denatured essentially as described in Qiao et al. (2003), harvested and passed through Whatman GF/C glass filters. The filters were washed and counted for radioactivity.

[2] = test system: Caspase-3 cleavage in K562 cells; test: Caspase-3 cleavage in K562 cells, Western blot; type: cell-based, human; settings: 10 uM, 6 h, FIG. 7
Protocol: Cell culture: Human leukemia K562 cells, obtained from ATCC (American Type Culture Collection), were maintained in RPMI 1640 medium containing 100 units/ml penicillin G, 100 μg/ml streptomycin, 10% (v/v) fetal calf serum in a humidified atmosphere with 5% CO2 at 37° C. The ability of the cells to exclude trypan Blue dye was used to assess cell viability.
Cell treatment: K562 cells were stored in 0.5% FBS for 15 min before the experiment. The cells, 6×10^5, were treated with DMSO as vehicle, or with PBT-3, PBT-4, or compounds A, B, C and D at 10 uM/dish (8 ml). Gleevec™ (STI) was used at 5 μM/dish. All experiments were without FBS and treatment lasted 6 h at 37° C. Treatment was terminated by washing the cells with ice-cold PBS buffer by centrifugation at 500×g for 5 min. Cells were lysed in buffer containing 20 mM Tris-HCl buffer, pH 7.4, 150 NaCl, 1 mM EDTA, 1 mM EGTA, 1% Triton X-100 2.5 mM sodium pyrophosphate, 1 mM beta-glycerophosphate, 1 mM sodium orthovanadate, 1 mM PMSF and 1 μM leupeptin/1 μM Aprotinin/1 μM pepstain A, on ice for 30 min. The lysates were clarified by centrifugation at 15,000×g for 15 min at 4° C. Lysates were subjected to protein assay (BCA, Pierce) and kept at −80° C.
Western blot: Thirty micrograms of protein from each sample were taken, and SDS-PAGE sample loading buffer was added. The mixture was boiled for 5 min. After centrifugation, the samples were loaded onto 15% SDS-PAGE gel and the gel was run (BioRad Protein II) for 2-3 h at 20 mA. The protein was transferred to a Trans-blot Nitrocellulose membrane (Millipore). Protein bands on the membranes were checked visually with Ponceau S-staining to ensure equivalent protein load/transfer comparing different samples. Membranes were blocked with 5% non-fat dry milk in PBS containing 0.5% Tween-20 for 1 h at room temperature, and then incubated with 1:1000 dilution of anti-caspase-3 antibody (BD Transduction Laboratories, Mississauga, Canada) overnight at 4° C. Secondary antibody of horseradish peroxidase anti-mouse antibody was used at 1:2000 dilution. Bound antibodies were detected by using enhanced chemilluminescence (ECL kit, Amersham Pharmacia Biotech) and the membranes were exposed to Hyper film for ECL detection. The same membrane was stripped by placing in buffer containing 62.5 mM Tris-HCl, pH 6.8/2% SDS/100 mM beta-mercaptoethanol at 50° C. for 30 min. The membrane was washed 3 times with PBS containing 0.5% Tween-20. The membrane was blocked by PBS buffer containing 0.5% Tween-20 and 5% skim milk. The anti-tubulin antibody (Santa Cruz, Calif.) was diluted 1:1000 and membrane analyzed by ECL as described above.

[3] = molecular target: T1, Ga14-DBD-PPAR gamma-LBD fusion protein (Homo sapiens, UniProt P37231); test: PPAR gamma transactivation assay (Gal4-PPAR gamma LBD / UASx4-TK-luc reporter); type: cell-based
T1 construct: expressed in transfected cells; host or cells: mouse embryonic fibroblasts (MEFs) or ME3 cells
T1 sequence (P37231 238-503 limits assumed): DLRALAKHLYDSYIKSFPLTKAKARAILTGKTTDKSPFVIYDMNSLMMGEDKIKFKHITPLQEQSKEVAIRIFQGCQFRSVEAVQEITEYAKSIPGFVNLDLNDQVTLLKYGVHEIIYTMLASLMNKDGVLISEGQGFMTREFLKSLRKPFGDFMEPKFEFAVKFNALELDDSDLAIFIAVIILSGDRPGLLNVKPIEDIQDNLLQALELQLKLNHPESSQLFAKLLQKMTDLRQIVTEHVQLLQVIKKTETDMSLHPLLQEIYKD
From the text: The UASx4-TK-luc reporter construct (where UAS refers to “upstream activator sequence”) contains four Ga14-responsive elements. The plasmid Ga14-PPAR gammaLBD encodes a Ga14-DBD-PPAR gamma-LBD fusion protein (i.e. the DNA-binding domain, DBD, of Ga14 fused to the ligand-binding domain, LBD, of PPAR gamma) capable of transactivating the UASx4-TK-luc reporter plasmid by binding to the UAS. The CMV-beta-galactosidase plasmid (where CMV is cytomegalovirus) was used for normalization of experimental values.
The cells were replated, typically in 24 well plates, so that at the time of transfection the cells were 50-70% confluent.
Briefly, per well in a 24 well plate, UASx4TKIuc (0.2 microg) Ga14-PPAR gammaLBD (or pM-hPPAR gamma-LBD; 0.1 microg) and CMV-beta-galactosidase (0.05 microg) in 30 μL DMEM (free of serum and antibiotics) was mixed with 30 microL DMEM (free of serum and antibiotics) containing 1 microL metafectenein. The mixture was incubated at room temperature for 20 min to allow formation of nucleic acid-lipid complexes and then approximately 60 micros was added to each well containing the 50-70% confluent cells. […] Cells were harvested after 12-24 hours and luciferase and beta-galactosidase activities were measured according to standard protocols.
Each experiment was carried out with triplicate samples with 0.1, 1 or 10 microM racemate or purified enantiomer.

IC50 (washed human platelets): 82 ± 18 nM
IC50 [1]: 5200 nM
PPAR Activation as % of positive control (Avandia) ([3]; Experiment 1, 0.1 microM): 14 +/− 3 % of positive control (Avandia)
PPAR Activation as % of positive control (Avandia) ([3]; Experiment 1, 1 microM): 17 +/− 3 % of positive control (Avandia)
PPAR Activation as % of positive control (Avandia) ([3]; Experiment 2, 0.1 microM): 4 +/− 1 % of positive control (Avandia)
PPAR Activation as % of positive control (Avandia) ([3]; Experiment 2, 1 microM): 5 +/− 1 % of positive control (Avandia)
PPAR Activation as % of positive control (Avandia) ([3]; Experiment 2, 10 microM): 18 +/− 1 % of positive control (Avandia)
PPAR Activation as % of positive control (Avandia) ([3]; Experiment 3, 0.1 microM): 7 +/− 2 % of positive control (Avandia)
PPAR Activation as % of positive control (Avandia) ([3]; Experiment 3, 1 microM): 8 +/− 1 % of positive control (Avandia)
PPAR Activation as % of positive control (Avandia) ([3]; Experiment 3, 10 microM): 33 +/− 7 % of positive control (Avandia)
Compound: CCCCC/C=C\CC1CC1C(O)/C=C\C/C=C\CCCC(=O)OC (stereo not drawn) [Compound D, 10S-hydroxy-11S,12S-cyclopropyl-eicosa-5Z,8Z,14Z-trienoic acid methyl ester]
Cleavage of caspase-3 [2]: increased cleavage of caspase-3
PPAR gamma transactivation, result in words [3]: more effectively than Compound C; also recorded: improved PPAR gamma transactivating activity over Compound C; also recorded: higher fold PPAR gamma transactivation than compound C
PPAR Activation as % of positive control (Avandia) ([3]; Experiment 1, 10 microM): 69 +/− 15 % of positive control (Avandia)
